Data reported in paper PMC12313019, “Fibrotic lung ECM upregulates SDC4/integrin-αvβ1 interaction and the interfering peptide SDC4_87-131 and its derivative peptides alleviate pulmonary fibrosis” (Regenerative Biomaterials, 2025).

Experiments:
[1] = tested on: SDC4/integrin-β1; assay: Duolink-PLA, SDC4/integrin-β1 extracellular interaction in fibroblast; format: cell-based, mouse; settings: SDC4_87-131 100 nM; with Anti-SDC4(93-121), n=5
Description: (§1) Decellularized lung ECM (dECM) was prepared as described in previous study. 2 × 10^5 cells/mL NIH3T3 cells (mouse […], purchased from the Stem Cell Bank of the Chinese Academy of Sciences, Shanghai, China) were seeded on the dECM slices attached to the bottom of the culture dish and cultured in DMEM medium containing 0.5% fetal bovine serum (Gibco, Waltham, MA, USA) at 37°C and 5% CO2.
Cells or tissue slices were attached to slides, fixed and permeabilized and blocked with Duolink^TM (Merck, MO, USA) blocking buffer. Antibodies against the extracellular domain of SDC4 (5G9, mouse IgG, SCBT #sc-12766), integrin-αv (rabbit IgG, CST #4711) and integrin-β1 (rabbit IgG, CST #34971) were diluted and added to the samples and incubated overnight at 4°C. After washing, PLUS and MINUS (proximity ligation assay, PLA) probes were added to the samples and incubated at 37°C for 1 h. After washing, the samples were sequentially incubated with PLUS and MINUS (PLA) probes, ligation buffer and amplification buffer containing polymerase. Finally, the samples were mounted with in situ mounting medium containing DAPI. Images were acquired using a Leica SP5 confocal microscope (Leica Biosystems, Germany) and quantitative analysis was performed using ImageJ software.

[2] = tested on: integrin-αvβ1, FAK/AKT, Smad2/3 and PKCα/NF-κB in BLM lung tissue; assay: BLM-induced PF in mice: Western blot of lung tissue; format: in vivo, mouse; settings: n=3
Description: (§2) After the mice were anesthetized (1% sodium pentobarbital 50 mg/kg was injected intraperitoneally), 150 μL of bleomycin (BLM, 5 mg/mL, BIO-000001) was inhaled into the lungs of the mice by tracheal inhalation instillation. One day later, the mice were randomly divided into model and drug treatment groups, and the mice in the control group were only subjected to saline inhalation.
(§3) 20 mg of lung tissue was extracted with RIPA lysis buffer (Roche International Ltd., Bermuda, USA), and the protein concentration was determined using a BCA protein detection kit (Roche). Protein samples were separated by 10% sodium dodecyl sulfate polyacrylamide gel (SDS-PAGE) electrophoresis and transferred to a PVDF membrane. After blocking, the PVDF membrane was incubated with primary antibodies for α-SMA, Integrin-αV, SDC4, Integrin-β1, p-Smad3, FAK, and p-FAK (CST, #19245, #4711, #12236S, #34971, #9520S, #3285S, and #3284S) at 4°C overnight, followed by incubation with secondary antibodies (CST, #7074P2), development with ECL reagent (SAB), and acquisition of images with a chemiluminescence imaging system (ChemiScope 5600).

[3] = tested on: integrin-αvβ1, FAK/AKT and PKCα/NF-κB pathways in NIH3T3 cells; assay: Western blot of signaling proteins in dECM-stimulated fibroblast; format: cell-based, mouse; settings: n=3
Description: as §1, §3

[4] = tested on: BLM-induced PF, C57BL/6J mice; assay: BLM-induced PF in mice: HE, Masson, hydroxyproline; format: in vivo, mouse
Description: C57BL/6J mice (male, 8-to 9-week old, 18–22 g, SPF grade) were purchased from Shanghai Slake Laboratory Animal Co., Ltd. [SCXK (Hu) 2022-0004, Shanghai, China]. […] The mice were housed in an SPF environment with 22–25°C, 46–65% humidity and 12 h/12 h light-dark alternation, with free access to water and food. This animal experiment was approved by the Experimental Animal Welfare Ethics Committee of Fujian Medical University (No. FJMU IACUC 2021-0465), and was carried out in accordance with the National Research Council's Guide for the Care and Use of Laboratory Animals.
as §2
Based on the dosage of SDC2 fragment peptide and our experimental results (Supplementary Figure S10A and B), the dosage schedule of SDC4_87-131 was set as follows: starting on the third day after BLM inhalation, 1 mg/kg, administered via trachea infusion once every three days. And Anti-SDC4(93-121) 8 mg/kg was administered on the third and tenth days (reference dosage).
Lung tissue samples were paraffin-embedded, then sliced and dewaxed, and HE and Masson staining were performed respectively. After dehydration and sealing, images were collected and analyzed using a microscope.
100 mg of lung tissue was accurately weighed and processed according to the instructions of the hydroxyproline assay kit (Nanjing Jiancheng, Nanjing, China), and the absorbance was measured at a wavelength of 550 nm. The data were expressed as micrograms (µg) of hydroxyproline per mg of dry lung tissue.

[5] = biological target: integrin-αvβ1 (Homo sapiens, UniProt P05556+P06756); assay: SPR binding of peptides to integrin-αvβ1 (Biacore 8K+); settings: 25°C, Figure 7E
Chain of integrin-αvβ1 (P06756 31-992 limits assumed): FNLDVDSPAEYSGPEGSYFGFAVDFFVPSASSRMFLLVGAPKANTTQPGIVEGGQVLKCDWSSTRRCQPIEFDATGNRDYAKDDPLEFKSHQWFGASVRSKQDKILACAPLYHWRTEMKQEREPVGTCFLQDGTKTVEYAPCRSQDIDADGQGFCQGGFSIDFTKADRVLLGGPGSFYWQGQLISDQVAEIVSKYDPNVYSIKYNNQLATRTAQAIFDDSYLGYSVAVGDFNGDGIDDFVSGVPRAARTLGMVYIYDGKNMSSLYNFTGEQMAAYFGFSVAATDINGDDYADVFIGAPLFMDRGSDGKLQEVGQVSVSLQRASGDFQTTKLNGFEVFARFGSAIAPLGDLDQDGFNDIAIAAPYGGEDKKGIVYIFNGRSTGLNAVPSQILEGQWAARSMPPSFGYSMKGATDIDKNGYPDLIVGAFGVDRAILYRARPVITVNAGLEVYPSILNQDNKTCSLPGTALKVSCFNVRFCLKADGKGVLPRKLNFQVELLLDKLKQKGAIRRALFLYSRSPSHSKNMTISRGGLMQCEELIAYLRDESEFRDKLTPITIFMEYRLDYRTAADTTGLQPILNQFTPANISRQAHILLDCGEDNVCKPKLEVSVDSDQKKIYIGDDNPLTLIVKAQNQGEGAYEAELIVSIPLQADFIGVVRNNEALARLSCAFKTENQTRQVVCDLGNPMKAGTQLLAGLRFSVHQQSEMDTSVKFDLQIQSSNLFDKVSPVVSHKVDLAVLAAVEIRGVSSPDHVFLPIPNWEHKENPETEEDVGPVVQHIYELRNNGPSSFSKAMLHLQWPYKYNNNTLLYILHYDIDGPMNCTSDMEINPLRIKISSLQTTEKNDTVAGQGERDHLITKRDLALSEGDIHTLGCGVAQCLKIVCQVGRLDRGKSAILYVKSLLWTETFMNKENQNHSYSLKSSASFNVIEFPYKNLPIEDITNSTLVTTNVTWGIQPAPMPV
Chain of integrin-αvβ1 (P05556 21-728 partner limits assumed): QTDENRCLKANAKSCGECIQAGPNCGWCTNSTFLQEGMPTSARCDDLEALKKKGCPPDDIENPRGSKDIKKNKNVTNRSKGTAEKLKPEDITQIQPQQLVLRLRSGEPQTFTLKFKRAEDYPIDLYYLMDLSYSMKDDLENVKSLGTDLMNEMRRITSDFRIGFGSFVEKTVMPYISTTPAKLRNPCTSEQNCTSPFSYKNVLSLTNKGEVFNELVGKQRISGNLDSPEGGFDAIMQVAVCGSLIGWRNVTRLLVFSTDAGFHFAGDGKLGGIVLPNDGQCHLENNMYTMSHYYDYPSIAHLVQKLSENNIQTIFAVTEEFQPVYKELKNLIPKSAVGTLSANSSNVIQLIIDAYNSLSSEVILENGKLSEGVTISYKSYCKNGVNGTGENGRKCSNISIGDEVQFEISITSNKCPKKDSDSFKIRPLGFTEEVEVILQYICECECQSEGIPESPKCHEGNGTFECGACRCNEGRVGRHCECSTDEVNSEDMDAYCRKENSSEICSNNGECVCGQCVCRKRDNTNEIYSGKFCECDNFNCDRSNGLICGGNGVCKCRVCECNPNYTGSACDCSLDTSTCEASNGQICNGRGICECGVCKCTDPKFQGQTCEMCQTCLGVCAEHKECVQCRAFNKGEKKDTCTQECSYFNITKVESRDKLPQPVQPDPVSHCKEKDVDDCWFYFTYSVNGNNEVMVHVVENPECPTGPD
Description: The Biacore 8K+ system (GE Healthcare) was used at 25°C. The ligand integrin-αvβ1 (1 mg/mL) was routinely coupled to the sensor chip (Series S Sensor Chip CM5, Cytiva, #100530). The peptide samples SDC4_87-131 and CS-1, -2, -3, -4, -8, -9, -10 were dissolved in PBS, and then, the samples with different concentration gradients (0.78, 1.56, 3.125, 6.25, 12.5, 25, 50, 100 μM) were injected, respectively, under the driving of buffer PBST (PBS + 0.05% Tween-20). The signal intensity was quantified in relative units (RU), and binding affinity was determined using the dissociation constant (Kd). After the experiment, 10 mM glycine-HCl buffer solution (pH = 2) was selected to regenerate the chip surface.

[6] = tested on: cell migration; settings: ref [39]; cited from earlier work
Excerpt: SDC4_87-131 is a synthetic peptide of the N87-M131 segment of the extracellular domain of SDC4 (Supplementary Figure S9A). […] Comparing the effects of ... || Syndecans and integrins collaboratively regulate FA formation and cell adhesion. PKCα is known to modulate integrin-mediated FAK phosphorylation and FA assembly. Inhibition of PKCα not only blocks NF-κB activation but also reduces FAK phosphorylation. Conversely, FAK activation can induce NF-κB activity, highlighting a bidirectional crosstalk between the SDC4/PKCα/NF-κB and integrin/FAK pathways.

affinity (in words) [5]: nM level
Substance: Ac-NHIPERAGSGSQVPTEPKKLEENEVIPKRISPVEESEDVSNKVSM-NH2 [SDC4_87-131]
integrin-β1/SDC4 interaction induced by dECM-PF [1]: significantly reduce
expression level of integrin-αv ([2]; 1 mg/kg ITD q3d): significantly reduced the expression level of integrin-αv
phosphorylation level of PKCα and nuclear content of NF-κB (p65) ([2]; SDC4_87-131 1 mg/kg, C8 10 mg/kg, Anti-SDC4(93-121) 8 mg/kg): could downregulate
FAK/AKT phosphorylation [2]: inhibit FAK/AKT phosphorylation activation in both in vitro and in vivo experiments
p-Smad2/3 effect vs C8 and Anti-SDC4 [2]: not significantly different from C8 and Anti-SDC4
p-Smad2/3 protein levels [2]: reduced p-Smad2/3 protein levels
expression of integrin-β1 ([3]; in vitro vs in vivo PF model): only reduced in the in vitro PF model
expression level of integrin-αv ([3]; in vitro, 100 nM, 48 h): significantly reduced the expression level of integrin-αv
FAK/AKT phosphorylation ([3]; in vitro, 100 nM): inhibit FAK/AKT phosphorylation activation in both in vitro and in vivo experiments
phosphorylation level of PKCα and nuclear content of NF-κB (p65) ([3]; in vitro, SDC4_87-131 100 nM, C8 20 nM, Anti-SDC4(93-121) 100 ng/mL): could downregulate
alveolar structural disorders and collagen deposition ([4]; SDC4_87-131 1 mg/kg ITD q3d, C8 10 mg/kg IP qd, Anti-SDC4(93-121) 8 mg/kg ITD day 3 and 10, to day 21): could alleviate alveolar structural disorders and collagen deposition
difference between treatments (HE, Masson, hydroxyproline) ([4]; SDC4_87-131, Anti-SDC4(93-121) and C8 compared): no significant difference
cell adhesion and migration [6]: reduces cell adhesion and migration
cell migration [6]: can inhibit cell migration comparably to the exogenous full-length SDC4
